# How the values were obtained:
# [1] = Acute toxicity (LD50, oral, mice); details: mouse, in vivo, dd-strain male mice 20 to 25 g, fasted overnight, suspended in 0.5% carboxymethyl cellulose, observed seven days
# Description: The compounds to be tested were suspended in 0.5% carboxymethyl cellulose solution, and the suspension was orally administrated in variable amounts in response to the weights of dd-strain male mice having those ranging from 20 to 25 g which were forced to abstain from food overnight.
# carrageenin edema = experiment: Anti-inflammatory activity (Carrageenin edema method); format: in vivo, rat (Wistar strain; details: 100 mg per kg oral, Wistar-strain male rats, 0.1 ml of 1% carrageenin s.c. left hind paw, edema weight after three hours, vs control group
# Description: (2) Anti-inflammatory activity (Carrageenin edema method)
# The compounds to be tested were suspended in 0.5% carboxymethyl cellulose solution, and the suspension was orally administrated in 100 mg per kg of Wistarstrain male rats having their weight range of 130 to 170 g which were forced to abstain from food overnight. These rats were then injected subcutaneously into their left hind paws each with 0.1 ml of a physiological NaCl solution having dissolved therein carrageen in 1% concentration. After three hours from said injection, the rats were killed, both hind legs were cut out and promptly weighed. There is assumed as weight of edema a value obtained by deducting a weight of untreated hind leg from that of the carrageenin injected hind leg of the rat. Inhibition ratio of a sample-administrated group to a control group has been sought. The control group was administrated only with 0.5% […] solution in the same manner.
# [2] = tested on: acetic acid stretching symptom; experiment: Analgesic activity (Acetic acid stretching method); format: in vivo, mouse (ddy-strain); details: 100 mg per kg oral, ddy-strain mice, 0.2 ml of 0.7% acetic acid intraperitoneal
# Description: (3) Analgesic activity (Acetic acid stretching method)
# After the compounds to be tested were orally administrated in 100 mg per kg of ddy-strain mice having their weight range of 20 to 25 g, 0.2 ml of 0.7% acetic acid was intra-peritoneally administrated to each animal to observe stretching symptom thereby having found the inhibition ratio (%).
compound,measurement,setting,value
"Cc1cc(C(=O)C=NO)on1 [(3-Methylisoxazole-5-yl)glyoxal-2-oxim, (3-methylisoxazole-5-yl)glyoxal-2-oxim]",LD50 at 168 h,[1],890 mg/kg
same,"Anti-inflammatory activity (Carrageenin edema method), inhibition ratio",carrageenin edema,83%
same,"Analgesic activity (Stretching method), inhibition ratio",[2],50%
"O=C(C=NO)c1cc(-c2ccccc2)no1 [(3-Phenylisoxazole-5-yl)glyoxal-2-oxim, (3-phenylisoxazole-5-yl)glyoxal-2-oxim]",LD50 at 168 h,[1],1690 mg/kg
same,"Anti-inflammatory activity (Carrageenin edema method), inhibition ratio",carrageenin edema,56%
same,"Analgesic activity (Stretching method), inhibition ratio",[2],75%

# Reference: patent US4243812A, “Processes for the preparation of glyoxal-2-oxims” (Taiho Pharmaceutical Company, priority 1978, dated 1981)
